Data reported in patent publication US10945612B2, “Assessing endothelial function using a blood pressure cuff” (The Regents of the University of California, priority 2014, dated 2021).
Entries after “also recorded” stand apart in the source; their conditions may differ.

How the values were obtained:
NO synthase = experiment: Cuff single pulse waveforms after endothelial stimulation with NO synthase blocked by L-NAME; format: in vivo, human; settings: cuff inflated to 70 mm Hg; NO synthase blocked via L-NAME
Description: Both the amplitude and slope of the rising edge of the pulse increase markedly after endothelial stimulation.
In an artery with intact endothelial function, both pulse height (maximal cross-sectional arterial area) and compliance (maximum slope of the rising edge) increase markedly over baseline. […] FIG. 4 illustrates how a five minute cuff occlusion and the ensuring reactive hyperemia lead to major increases in area change per pulse and the maximum derivative of the area per pulse. Both metrics return to baseline levels after 20 minutes. FIG. 5 confirms the repeatability of the protocol by illustrating the effects of a series of two cuff occlusion periods. We see from FIG. 6 that only a small slow drift in the measured quantities occurs when no reactive hyperemic stimulus is applied.

brachial artery = experiment: Cuff-based measurement of vasodilation (pulse amplitude relative to baseline) after sublingual nitroglycerin; format: in vivo, human
Method: Three individuals in the age-range of 28-38 were examined. All subjects had Framingham risk scores of 1% or less, and had no history of cardiovascular disease. Each individual was assessed at least three times before and after RH induced by five minutes of suprasystolic cuff occlusion. At least one additional measurement was made using the same protocol, except without cuff inflation. Sensitivity to a 0.4 mg dose of sublingual NG was assessed three times in two individuals.
Sensitivity to a 0.4 mg dose of sublingual NG was assessed three times in two individuals. In the analysis that follows, all of the datasets are pooled by stimulus. This addresses the question: Can the method measure changes in arterial tone due to vasorelaxatory stimuli and with what sensitivity?
A single quantity relating to the recorded pressure data, the pulse amplitude, was studied and it was posited that this is proportional to the arterial area. During the post stimulus interval, pressure data from the cuff were recorded approximately every 80 seconds, for a period of 30 seconds. During each recording interval, the cuff was inflated to 70 mm Hg, which was always below the measured diastolic pressure of the subject. To quantify the observed response, the mean of the pulse quantity (in this case, amplitude) during the response interval was divided by the mean value of the same quantity during the baseline interval. FIG. 10 illustrates the results.
v) The stimulus is applied. This is either 1-5 min of cuff occlusion to suprasystolic pressure Ps (for studies of endothelial function) or a dose of sublingual NG (for studies of endothelium-independent vasodilation).
(vi) After Tp=45 s have elapsed following cuff release or drug administration, a series of up to Nr=10 repeat measurement intervals ensue. In each interval, the cuff is inflated to Pm for Tm seconds, after which it is deflated for Tw seconds. This large number of repeat measurements (Nr)) is required only when one wishes to record the return of the vessel toward baseline.
[formula] and reported, e.g., to the user. […]

smooth muscle = settings: 400 μg sublingual dose; Feldman et al. (1979), Adams et al. (1998); cited from earlier work

Row | Structure (SMILES) | compliance (maximum slope of the rising edge) increase over baseline after endothelial stimulation (NO synthase) | pulse height (maximal cross-sectional arterial area) increase over baseline after endothelial stimulation (NO synthase) | cDmax % (brachial artery; 400 μg sublingual NG, maximal vasodilation by the cuff-based method, relative to baseline) [%] | Mean ± SEM of maximum response over all data sets (dilation response) (brachial artery; 400 μg sublingual NG, ratio to baseline, pooled data sets) | Mean ± SEM of maximum Response over all data sets (amplitude response) (brachial artery; 0.4 mg sublingual NG, mean pulse amplitude in response interval divided by baseline, cuff at 70 mm Hg, pooled data sets) | smooth muscle dilation (smooth muscle)
1 | COC(=O)[C@@H](N)CCCNC(=N)N[N+](=O)[O-] [L-NAME] | greatly attenuates this response; also recorded: greatly attenuated | greatly attenuates this response; also recorded: greatly attenuated |  |  |  | 
2 | O=[N+]([O-])OCC(CO[N+](=O)[O-])O[N+](=O)[O-] [NG, nitroglycerin] |  |  | 70 | 1.70 ± 0.036 | 1.70 ± 0.036 | maximal smooth muscle dilation
